Source: ChEMBL document CHEMBL1149748, “Studies on Formosan soft corals. II. Cytotoxic cembranolides from the soft coral Lobophytum michaelae” (1992)
Converted amounts (≈) assume the structure as drawn.

How the values were obtained:
Format in all cases: functional
P388 = test: Cytotoxicity against mouse P388 cells after 3 days by MTT assay; conditions: P388, 72 h, read-out: ED50 (the source's name)
A549 = test: Cytotoxicity against human A549 cells after 6 days by MTT assay; conditions: A549, 144 h, read-out: ED50 (the source's name)
HT-29 = test: Cytotoxicity against human HT-29 cells after 6 days by MTT assay; conditions: HT-29, 144 h, read-out: ED50 (the source's name)
KB = test: Cytotoxicity against human KB cells after 3 days by MTT assay; conditions: 72 h, read-out: ED50 (the source's name)

SMILES | EC50 (P388) [µg/mL] | EC50 (A549) [µg/mL] | EC50 (HT-29) [µg/mL] | EC50 (KB) [µg/mL]
C=C1C(=O)O[C@@H]2[C@H]1[C@H](OC(C)=O)C/C(C)=C/C[C@H](OC(C)=O)/C(C)=C/C[C@@H](OC(C)=O)[C@]1(C)O[C@@H]21 [CRASSOLIDE] | 0.08 (≈ 0.163 µM) | 0.39 (≈ 0.795 µM) | 0.26 (≈ 0.53 µM) | 0.85 (≈ 1.73 µM)
C=C1C(=O)O[C@@H]2[C@H]1[C@@H](OC(C)=O)C/C(C)=C/[C@@H](OC(C)=O)C/C(C)=C/CC[C@@]1(C)O[C@H]21 [LOBOMICHAOLIDE] | 0.34 (≈ 0.786 µM) | 0.38 (≈ 0.879 µM) | 0.37 (≈ 0.855 µM) | 0.59 (≈ 1.36 µM)
